From PubChem BioAssay AID248 (DTP/NCI, 2004)
Inconclusive results and toxic doses are left out.

System: L1210 leukemia ip in BDF1 mice, survival T/C
Test: NCI In Vivo Anticancer Drug Screen. Data for tumor model L1210 Leukemia (intraperitoneal) in B6D2F1 (BDF1) mice
Details: endpoint: mean survival time, higher = longer survival
How it was run: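 Tumor was transplanted into mice, which were then dosed with test compound or vehicle alone. Survival was recorded for each group, and the treated figure was expressed relative to the control figure.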

[1] = dose: 100.0 mg/kg/injection, schedule: Q04DX002 (ip), vehicle: Klucel (hydroxypropylcellulose) (HPC)
[2] = dose: 200.0 mg/kg/injection, schedule: Q04DX002 (ip), vehicle: Klucel (hydroxypropylcellulose) (HPC)

SMILES | T/C (dose: 100.0 mg/kg/injection, schedule: Q01DX001 (ip), vehicle: other) | T/C (dose: 200.0 mg/kg/injection, schedule: Q01DX001 (ip), vehicle: other) | T/C (dose: 400.0 mg/kg/injection, schedule: Q01DX001 (ip), vehicle: other) | T/C (dose: 25.0 mg/kg/injection, schedule: Q01DX009 (ip), vehicle: Klucel (hydroxypropylcellulose) (HPC)) | T/C (dose: 50.0 mg/kg/injection, schedule: Q01DX009 (ip), vehicle: Klucel (hydroxypropylcellulose) (HPC)) | T/C (dose: 100.0 mg/kg/injection, schedule: Q01DX001 (ip), vehicle: saline with Tween-80) | T/C (dose: 100.0 mg/kg/injection, schedule: Q01DX009 (ip), vehicle: Klucel (hydroxypropylcellulose) (HPC)) | T/C [1] | T/C (dose: 100.0 mg/kg/injection, schedule: Q04DX002 (ip), vehicle: saline) | T/C (dose: 200.0 mg/kg/injection, schedule: Q01DX001 (ip), vehicle: saline with Tween-80) | T/C [2] | T/C (dose: 200.0 mg/kg/injection, schedule: Q04DX002 (ip), vehicle: saline) | T/C (dose: 400.0 mg/kg/injection, schedule: Q01DX001 (ip), vehicle: saline with Tween-80) | T/C (dose: 400.0 mg/kg/injection, schedule: Q04DX002 (ip), vehicle: Klucel (hydroxypropylcellulose) (HPC))
CC(=O)OCC1OC(OC(C)=O)C(NC(=O)NCCCl)C(OC(C)=O)C1OC(C)=O (stereo unspecified) | 97 % of control | 101 % of control | 97 % of control |  |  |  |  |  |  |  |  |  |  | 
O=C1OC(CN2CCOCC2)CN1/N=C/c1ccc([N+](=O)[O-])o1 (stereo unspecified) |  |  |  | 104 % of control | 92 % of control | 97 % of control | 101 % of control | 310 % of control | 105 % of control | 97 % of control | 90 % of control | 98 % of control | 104 % of control | 
CCCCCCCC(=O)N1CC(C)OC(C)C1 (stereo unspecified) |  |  |  |  |  |  |  | 100 % of control |  |  | 114 % of control |  |  | 107 % of control
